# In ChEMBL document CHEMBL4507262, “Data for DCP probe A-1596586” (2021):
# Key:
# [1] = target: Mitogen-activated protein kinase 9 (Homo sapiens) (UniProt P45984); conditions: Compound concentration 1000.0 nM
# [2] = target: Activin receptor type-1B (Homo sapiens) (UniProt P36896); conditions: Compound concentration 1000.0 nM
# [3] = target: Serine/threonine-protein kinase SIK1 (Homo sapiens) (UniProt P57059); conditions: Compound concentration 1000.0 nM
# [4] = target: G protein-coupled receptor kinase 3 (Homo sapiens) (UniProt P35626); conditions: Compound concentration 1000.0 nM
# [5] = target: Casein kinase I isoform gamma-3 (Homo sapiens) (UniProt Q9Y6M4); conditions: Compound concentration 1000.0 nM
# [6] = target: Calcium/calmodulin-dependent protein kinase type 1D (Homo sapiens) (UniProt Q8IU85); conditions: Compound concentration 1000.0 nM
# [7] = target: Serine/threonine-protein kinase RIO1 (Homo sapiens) (UniProt Q9BRS2); conditions: Compound concentration 1000.0 nM
# [8] = target: Non-receptor tyrosine-protein kinase TYK2 (Homo sapiens) (UniProt P29597); conditions: Compound concentration 1000.0 nM
# [9] = target: Inhibitor of nuclear factor kappa-B kinase subunit epsilon (Homo sapiens) (UniProt Q14164); conditions: Compound concentration 1000.0 nM
# [10] = target: Mitogen-activated protein kinase kinase kinase 13 (Homo sapiens) (UniProt O43283); conditions: Compound concentration 1000.0 nM
# [11] = target: Glutamate NMDA receptor (Rattus norvegicus) (UniProt P35439+Q00959+Q00960+Q00961+Q62645+Q8VHN2+Q9R1M7); experiment: PCP Eurofins-Cerep binding assay; type: protein-complex assay; parameters: ligand concentration 10 nM; conditions: filed as antagonist, Compound concentration 10.0 uM
# [12] = tested on: Tyrosine-protein kinase ABL1 (Homo sapiens), P00519 [T315I]; conditions: Compound concentration 1000.0 nM
# [13] = target: Serine/threonine-protein kinase TBK1 (Homo sapiens) (UniProt Q9UHD2); conditions: Compound concentration 1000.0 nM
# [14] = target: Neuropeptide Y receptor type 1 (Homo sapiens) (UniProt P25929); experiment: Y1 (h) Eurofins-Cerep binding assay; parameters: ligand concentration 0.025 nM; conditions: filed as agonist, Compound concentration 10.0 uM
# [15] = target: Serine/threonine-protein kinase PknB (Mycobacterium tuberculosis) (UniProt P9WI81); conditions: Compound concentration 1000.0 nM
# [16] = target: Serine/threonine-protein kinase 33 (Homo sapiens) (UniProt Q9BYT3); conditions: Compound concentration 1000.0 nM
# [17] = target: Serine/threonine-protein kinase PRP4 homolog (Homo sapiens) (UniProt Q13523); conditions: Compound concentration 1000.0 nM
# [18] = target: Tyrosine-protein kinase Yes (Homo sapiens) (UniProt P07947); conditions: Compound concentration 1000.0 nM
# [19] = target: Tyrosine-protein kinase BTK (Homo sapiens) (UniProt Q06187); conditions: Compound concentration 1000.0 nM
# [20] = target: cGMP-dependent protein kinase 1 (Homo sapiens) (UniProt Q13976); conditions: Compound concentration 1000.0 nM
# [21] = target: T1, Muscarinic acetylcholine receptor M2 (Homo sapiens) (UniProt P08172); experiment: M2 (h) Eurofins-Cerep binding assay; parameters: ligand concentration 2 nM; conditions: filed as antagonist, Compound concentration 10.0 uM
# T1 sequence (whole entry): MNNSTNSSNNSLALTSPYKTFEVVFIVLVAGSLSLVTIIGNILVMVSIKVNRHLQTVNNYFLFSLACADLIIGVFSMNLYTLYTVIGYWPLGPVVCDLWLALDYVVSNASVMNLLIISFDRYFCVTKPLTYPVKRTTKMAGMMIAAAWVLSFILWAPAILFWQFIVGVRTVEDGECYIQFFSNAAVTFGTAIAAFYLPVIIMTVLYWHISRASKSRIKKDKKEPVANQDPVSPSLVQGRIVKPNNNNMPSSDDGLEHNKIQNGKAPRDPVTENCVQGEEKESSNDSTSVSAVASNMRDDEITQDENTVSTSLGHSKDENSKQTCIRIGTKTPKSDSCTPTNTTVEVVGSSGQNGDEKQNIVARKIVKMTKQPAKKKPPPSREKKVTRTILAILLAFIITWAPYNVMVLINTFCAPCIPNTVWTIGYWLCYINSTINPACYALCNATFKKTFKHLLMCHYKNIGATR
# [22] = target: Tyrosine-protein kinase Fer (Homo sapiens) (UniProt P16591); conditions: Compound concentration 1000.0 nM
# [23] = target: Cyclin-dependent kinase-like 2 (Homo sapiens) (UniProt Q92772); conditions: Compound concentration 1000.0 nM
# [24] = target: Fibroblast growth factor receptor 1 (Homo sapiens) (UniProt P11362); conditions: Compound concentration 1000.0 nM
# [25] = target: Cyclin-dependent kinase 5 (Homo sapiens) (UniProt Q00535); conditions: Compound concentration 1000.0 nM
# [26] = target: Homeodomain-interacting protein kinase 1 (Homo sapiens) (UniProt Q86Z02); conditions: Compound concentration 1000.0 nM
# [27] = target: Histamine H2 receptor (Homo sapiens) (UniProt P25021); conditions: Compound concentration 10.0 uM
# [28] = target: Serine/threonine-protein kinase Sgk3 (Homo sapiens) (UniProt Q96BR1); conditions: Compound concentration 1000.0 nM
# [29] = target: Mitogen-activated protein kinase 3 (Homo sapiens) (UniProt P27361); conditions: Compound concentration 1000.0 nM
# [30] = target: Ephrin type-B receptor 4 (Homo sapiens) (UniProt P54760); conditions: Compound concentration 1000.0 nM
# [31] = target: Prostaglandin G/H synthase 1 (Homo sapiens) (UniProt P23219); experiment: COX1(h) Eurofins-Cerep enzyme and uptake assay; conditions: Compound concentration 10.0 uM
# [32] = target: Serine/threonine-protein kinase 25 (Homo sapiens) (UniProt O00506); conditions: Compound concentration 1000.0 nM
# [33] = target: Serine/threonine-protein kinase Nek10 (Homo sapiens) (UniProt Q6ZWH5); conditions: Compound concentration 1000.0 nM
# [34] = target: Mitogen-activated protein kinase kinase kinase 10 (Homo sapiens) (UniProt Q02779); conditions: Compound concentration 1000.0 nM
# [35] = target: 5-hydroxytryptamine receptor 4 (Homo sapiens) (UniProt Q13639); experiment: 5-HT4 e (h) Eurofins-Cerep binding assay; parameters: ligand concentration 0.3 nM; conditions: filed as antagonist, Compound concentration 10.0 uM
# [36] = target: Tyrosine-protein kinase Mer (Homo sapiens) (UniProt Q12866); conditions: Compound concentration 1000.0 nM
# [37] = target: Serine/threonine-protein kinase 10 (Homo sapiens) (UniProt O94804); conditions: Compound concentration 1000.0 nM
# [38] = target: Bone morphogenetic protein receptor type-1B (Homo sapiens) (UniProt O00238); conditions: Compound concentration 1000.0 nM
# Bone morphogenetic protein receptor type-1B (Homo sapiens), sequence (O00238 whole entry): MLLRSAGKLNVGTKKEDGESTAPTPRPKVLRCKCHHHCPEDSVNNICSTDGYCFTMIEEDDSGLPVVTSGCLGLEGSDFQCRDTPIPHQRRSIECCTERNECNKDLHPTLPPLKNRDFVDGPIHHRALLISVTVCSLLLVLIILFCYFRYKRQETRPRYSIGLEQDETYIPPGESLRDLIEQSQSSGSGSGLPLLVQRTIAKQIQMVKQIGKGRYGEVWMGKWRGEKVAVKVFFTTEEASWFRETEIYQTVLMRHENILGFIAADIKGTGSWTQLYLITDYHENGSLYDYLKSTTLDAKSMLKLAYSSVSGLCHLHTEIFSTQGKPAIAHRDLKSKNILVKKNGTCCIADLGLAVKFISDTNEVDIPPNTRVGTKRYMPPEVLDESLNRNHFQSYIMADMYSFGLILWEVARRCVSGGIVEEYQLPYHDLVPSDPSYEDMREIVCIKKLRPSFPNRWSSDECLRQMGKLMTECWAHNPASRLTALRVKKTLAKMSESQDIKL
# Serine/threonine-protein kinase TBK1 (Homo sapiens), sequence (Q9UHD2 whole entry): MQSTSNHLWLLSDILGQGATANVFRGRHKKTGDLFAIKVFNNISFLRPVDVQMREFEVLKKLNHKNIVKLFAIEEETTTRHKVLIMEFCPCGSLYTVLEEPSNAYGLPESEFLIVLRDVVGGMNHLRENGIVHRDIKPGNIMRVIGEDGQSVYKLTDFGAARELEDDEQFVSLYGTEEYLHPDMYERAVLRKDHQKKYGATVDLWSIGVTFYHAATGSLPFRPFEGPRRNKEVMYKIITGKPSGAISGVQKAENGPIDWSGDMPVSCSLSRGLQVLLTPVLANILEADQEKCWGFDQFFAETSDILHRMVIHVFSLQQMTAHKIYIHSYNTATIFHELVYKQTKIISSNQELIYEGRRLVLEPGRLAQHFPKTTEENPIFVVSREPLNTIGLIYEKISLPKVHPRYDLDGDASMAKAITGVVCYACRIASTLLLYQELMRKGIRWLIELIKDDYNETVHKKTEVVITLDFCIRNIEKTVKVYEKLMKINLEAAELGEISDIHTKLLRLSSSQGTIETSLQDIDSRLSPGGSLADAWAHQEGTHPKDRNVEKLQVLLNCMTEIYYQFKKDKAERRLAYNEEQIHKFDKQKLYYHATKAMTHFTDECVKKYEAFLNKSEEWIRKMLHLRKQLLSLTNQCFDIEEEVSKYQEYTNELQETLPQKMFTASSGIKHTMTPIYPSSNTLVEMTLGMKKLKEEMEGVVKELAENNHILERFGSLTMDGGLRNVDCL
# Serine/threonine-protein kinase 33 (Homo sapiens), sequence (Q9BYT3 whole entry, looked up): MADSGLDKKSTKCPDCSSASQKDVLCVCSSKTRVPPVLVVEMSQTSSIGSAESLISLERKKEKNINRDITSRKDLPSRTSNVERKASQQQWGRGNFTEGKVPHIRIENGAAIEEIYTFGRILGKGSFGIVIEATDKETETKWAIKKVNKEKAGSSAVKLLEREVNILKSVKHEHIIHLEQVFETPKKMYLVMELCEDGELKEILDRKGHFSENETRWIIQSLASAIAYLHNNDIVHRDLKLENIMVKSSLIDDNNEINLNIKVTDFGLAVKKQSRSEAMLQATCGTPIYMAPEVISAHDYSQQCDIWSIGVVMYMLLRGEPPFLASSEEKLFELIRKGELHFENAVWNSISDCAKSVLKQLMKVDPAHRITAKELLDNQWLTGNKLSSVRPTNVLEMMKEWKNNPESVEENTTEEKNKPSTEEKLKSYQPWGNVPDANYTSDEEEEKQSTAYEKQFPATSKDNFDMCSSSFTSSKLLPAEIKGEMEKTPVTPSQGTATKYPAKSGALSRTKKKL
# Mitogen-activated protein kinase kinase kinase 13 (Homo sapiens), sequence (O43283 whole entry): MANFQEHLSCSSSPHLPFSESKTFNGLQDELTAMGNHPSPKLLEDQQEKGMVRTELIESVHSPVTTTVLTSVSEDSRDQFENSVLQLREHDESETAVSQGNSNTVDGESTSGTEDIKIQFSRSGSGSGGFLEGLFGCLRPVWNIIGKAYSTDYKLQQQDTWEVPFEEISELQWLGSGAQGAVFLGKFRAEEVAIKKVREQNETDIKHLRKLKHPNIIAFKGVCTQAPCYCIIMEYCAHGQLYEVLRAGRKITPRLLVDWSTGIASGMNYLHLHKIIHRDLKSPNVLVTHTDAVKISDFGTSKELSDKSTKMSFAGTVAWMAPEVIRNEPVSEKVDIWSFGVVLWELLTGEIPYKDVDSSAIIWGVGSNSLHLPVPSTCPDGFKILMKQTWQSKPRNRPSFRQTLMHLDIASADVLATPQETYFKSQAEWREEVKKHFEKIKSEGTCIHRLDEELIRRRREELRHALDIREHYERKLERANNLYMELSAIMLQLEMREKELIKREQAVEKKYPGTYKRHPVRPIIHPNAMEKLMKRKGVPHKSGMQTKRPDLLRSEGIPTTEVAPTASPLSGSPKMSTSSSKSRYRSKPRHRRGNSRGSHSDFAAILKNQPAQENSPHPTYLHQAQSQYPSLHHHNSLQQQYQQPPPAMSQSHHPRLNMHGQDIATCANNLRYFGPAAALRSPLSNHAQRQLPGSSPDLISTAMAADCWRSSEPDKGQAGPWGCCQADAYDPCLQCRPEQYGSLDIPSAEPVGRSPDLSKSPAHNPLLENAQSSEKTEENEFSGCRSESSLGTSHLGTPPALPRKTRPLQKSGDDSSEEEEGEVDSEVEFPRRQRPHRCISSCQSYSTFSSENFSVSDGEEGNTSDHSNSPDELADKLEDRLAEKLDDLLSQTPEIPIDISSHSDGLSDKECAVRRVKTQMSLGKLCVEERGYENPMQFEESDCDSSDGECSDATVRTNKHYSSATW
# Fibroblast growth factor receptor 1 (Homo sapiens), sequence (P11362 22-822 limits assumed): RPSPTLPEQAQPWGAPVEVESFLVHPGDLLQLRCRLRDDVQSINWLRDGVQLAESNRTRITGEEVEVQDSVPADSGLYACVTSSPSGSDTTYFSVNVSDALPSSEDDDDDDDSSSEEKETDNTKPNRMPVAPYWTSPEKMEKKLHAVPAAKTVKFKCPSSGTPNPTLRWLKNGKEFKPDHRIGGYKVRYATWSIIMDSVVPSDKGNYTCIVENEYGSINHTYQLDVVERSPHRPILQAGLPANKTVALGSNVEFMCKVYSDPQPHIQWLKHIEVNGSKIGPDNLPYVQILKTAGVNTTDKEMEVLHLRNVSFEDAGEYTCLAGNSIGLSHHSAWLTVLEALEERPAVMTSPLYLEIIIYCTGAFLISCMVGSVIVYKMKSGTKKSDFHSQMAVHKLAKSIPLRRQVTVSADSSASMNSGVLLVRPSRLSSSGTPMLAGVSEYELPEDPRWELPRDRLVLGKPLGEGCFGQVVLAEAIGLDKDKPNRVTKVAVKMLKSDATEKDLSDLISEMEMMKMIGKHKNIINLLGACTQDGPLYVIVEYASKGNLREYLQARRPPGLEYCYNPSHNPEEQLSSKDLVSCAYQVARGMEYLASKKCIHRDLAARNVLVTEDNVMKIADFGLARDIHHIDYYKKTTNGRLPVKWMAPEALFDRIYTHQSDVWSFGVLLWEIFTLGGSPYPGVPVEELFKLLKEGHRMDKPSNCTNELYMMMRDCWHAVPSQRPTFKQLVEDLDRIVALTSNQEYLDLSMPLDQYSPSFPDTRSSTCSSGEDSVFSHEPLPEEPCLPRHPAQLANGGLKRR
# Serine/threonine-protein kinase RIO1 (Homo sapiens), sequence (Q9BRS2 whole entry): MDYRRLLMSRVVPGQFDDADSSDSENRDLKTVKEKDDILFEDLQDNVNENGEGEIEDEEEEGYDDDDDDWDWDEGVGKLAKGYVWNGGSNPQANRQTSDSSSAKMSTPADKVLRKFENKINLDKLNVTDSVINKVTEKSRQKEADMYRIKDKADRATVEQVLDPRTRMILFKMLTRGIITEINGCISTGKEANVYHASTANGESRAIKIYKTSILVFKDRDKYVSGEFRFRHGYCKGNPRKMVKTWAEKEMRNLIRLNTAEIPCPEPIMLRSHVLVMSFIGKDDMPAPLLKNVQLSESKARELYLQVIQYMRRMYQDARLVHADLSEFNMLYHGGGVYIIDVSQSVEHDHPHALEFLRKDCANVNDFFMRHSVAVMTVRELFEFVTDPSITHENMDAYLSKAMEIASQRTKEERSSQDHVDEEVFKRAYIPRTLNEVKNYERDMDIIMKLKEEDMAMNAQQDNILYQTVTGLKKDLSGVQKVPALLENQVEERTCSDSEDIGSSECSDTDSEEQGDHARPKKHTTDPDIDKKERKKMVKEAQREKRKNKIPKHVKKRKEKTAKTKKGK
# Serine/threonine-protein kinase PknB (Mycobacterium tuberculosis), sequence (P9WI81 whole entry): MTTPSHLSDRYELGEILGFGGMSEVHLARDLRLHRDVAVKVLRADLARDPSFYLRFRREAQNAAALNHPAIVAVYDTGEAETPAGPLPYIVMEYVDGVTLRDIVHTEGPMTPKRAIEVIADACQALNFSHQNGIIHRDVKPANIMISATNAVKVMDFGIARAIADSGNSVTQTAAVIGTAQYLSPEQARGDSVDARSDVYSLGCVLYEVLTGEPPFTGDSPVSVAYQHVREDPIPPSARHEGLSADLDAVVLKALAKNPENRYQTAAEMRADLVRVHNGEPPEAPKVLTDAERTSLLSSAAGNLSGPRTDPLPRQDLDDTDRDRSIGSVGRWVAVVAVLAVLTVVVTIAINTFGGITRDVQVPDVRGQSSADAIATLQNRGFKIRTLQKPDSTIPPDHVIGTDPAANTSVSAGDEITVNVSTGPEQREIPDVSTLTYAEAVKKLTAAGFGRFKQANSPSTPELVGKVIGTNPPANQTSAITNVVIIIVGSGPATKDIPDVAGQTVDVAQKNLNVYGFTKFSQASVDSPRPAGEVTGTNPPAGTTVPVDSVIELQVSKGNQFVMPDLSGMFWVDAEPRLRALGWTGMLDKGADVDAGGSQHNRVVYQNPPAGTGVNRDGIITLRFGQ
# Cyclin-dependent kinase 5 (Homo sapiens), sequence (Q00535 whole entry, looked up): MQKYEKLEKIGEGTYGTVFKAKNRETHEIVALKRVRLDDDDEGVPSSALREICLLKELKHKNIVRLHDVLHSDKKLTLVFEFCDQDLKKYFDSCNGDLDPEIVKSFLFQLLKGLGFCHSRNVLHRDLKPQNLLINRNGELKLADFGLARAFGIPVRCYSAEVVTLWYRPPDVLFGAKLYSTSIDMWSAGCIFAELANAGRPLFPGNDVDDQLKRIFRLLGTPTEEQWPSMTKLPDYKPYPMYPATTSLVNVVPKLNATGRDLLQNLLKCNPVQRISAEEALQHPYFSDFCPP
Structure (SMILES),residual activity [1] [%],residual activity [2] [%],residual activity [3] [%],residual activity [4] [%],residual activity [5] [%],residual activity [6] [%],residual activity [7] [%],residual activity [8] [%],residual activity [9] [%],residual activity [10] [%],% Inhibition of Control Specific Binding (Mean n=2) [11] [%],residual activity [12] [%],residual activity [13] [%],% Inhibition of Control Specific Binding (Mean n=2) [14] [%],residual activity [15] [%],residual activity [16] [%],residual activity [17] [%],residual activity [18] [%],residual activity [19] [%],residual activity [20] [%],also measured
COc1ccc2c(c1)O[C@@H](c1ccc(OC)c(OC)c1)C[C@H]2NC(=O)C1(c2ccc3c(c2)OC(F)(F)O3)CC1 [A-1596586],83,67,100,75,100,94,100,65,70,67,-6.1,75,86,9.8,85,68,83,100,81,100,% Inhibition of Control Specific Binding (Mean n=2) [21]: -9.9%; residual activity [22]: 100%; residual activity [23]: 100%; residual activity [24]: 90%; residual activity [25]: 100%; residual activity [26]: 86%; inhibition [27]: -6.08%; residual activity [28]: 84%; residual activity [29]: 89%; residual activity [30]: 91%; % Inhibition of Control Values (Mean n=2) [31]: -7.9%; residual activity [32]: 100%; residual activity [33]: 86%; residual activity [34]: 100%; % Inhibition of Control Specific Binding (Mean n=2) [35]: 10.2%; residual activity [36]: 95%; residual activity [37]: 88%; residual activity [38]: 71%
COc1ccc2c(c1)O[C@H](c1ccc(OC)c(OC)c1)C[C@@H]2NC(=O)C1(c2ccc3c(c2)OC(F)(F)O3)CC1 [A-1596584],92,82,100,100,100,100,100,85,96,91,4,93,99,-0.4,88,61,56,97,92,100,% Inhibition of Control Specific Binding (Mean n=2) [21]: -5.5%; residual activity [22]: 100%; residual activity [23]: 100%; residual activity [24]: 87%; residual activity [25]: 100%; residual activity [26]: 87%; inhibition [27]: -0.89%; residual activity [28]: 100%; residual activity [29]: 100%; residual activity [30]: 88%; % Inhibition of Control Values (Mean n=2) [31]: -6.7%; residual activity [32]: 100%; residual activity [33]: 100%; residual activity [34]: 97%; % Inhibition of Control Specific Binding (Mean n=2) [35]: 5.3%; residual activity [36]: 98%; residual activity [37]: 100%; residual activity [38]: 100%
